Paper PMC12298827, “Subchronic Toxicities of Four Per- and Polyfluoroalkyl Substances (PFASs) by Oral Exposure in Sprague–Dawley Rats” (Toxics, 2025)

System: male and female Sprague–Dawley rats
Test: 90-day subchronic oral gavage toxicity study
Type: in vivo, rat
Design: key to NOEL, absolute liver weight increase / LOEL, absolute liver weight increase / NOEL, relative kidney weight increase / LOEL, relative kidney weight increase / NOEL, absolute kidney weight increase / LOEL, absolute kidney weight increase / NOEL, relative liver weight increase / LOEL, relative liver weight increase: NR: no response, no statistically significant dose-dependent changes
Description: Subchronic (90-day) studies were performed in accordance with current U.S. EPA’s Toxic Substances Control Act Good Laboratory Practice (GLP) Standards, with the following two general exceptions to the GLP guidelines: Analysis of the dose formulations was conducted according to RTI-approved Standard Operating Procedures, and corn oil (the vehicle) was not characterized (certificate of analysis from the vendor is available in the appendices to the final reports). Male and female Sprague–Dawley rats (five dose levels plus a control, n = 10/sex/dose group, corn oil vehicle dose volume of 3 mL/kg; oral gavage) were used in these studies, and the rats were euthanized on SD 91. The dose levels for PFHI were 0, 12.5, 25, 50, 100, and 200 mg/kg-day. The dose levels for MHFPK were 0, 18.8, 37.5, 75, 150, and 300 mg/kg-day. The dose levels for PFNAC were 0, 0.1, 0.3, 1.0, 3.0, and 10 mg/kg-day for male rats and 0, 0.3, 1.0, 3.0, 10, and 30 mg/kg-day for female rats. For CTFPA, the dose levels were 0, 1.9, 3.8. 7.5, 15, and 30 mg/kg-day for male rats and 0, 6.3, 12.5, 25, 50, and 100 mg/kg-day for female rats. For each PFAS, three batches of dosing solution were prepared. The time between the batch preparation of the dosing solutions ranged between 29 and 39 days. Blood samples were collected from all the rats at termination for serum chemistry, hematology, coagulation, and the analysis of the parent PFAS chemical in the plasma. In vivo data collection and further detail on the endpoints examined postmortem are described below.
The rats were observed twice daily for morbidity and mortality throughout the study period. At least once prior to randomization to test groups and weekly thereafter, the rats were physically examined, and bodyweights were obtained. Feed consumption was quantified weekly starting on SD 1.
Neurotoxicity was evaluated using the functional observational battery (FOB) and measuring locomotor activity (LMA) 2–4 h post dosing on SDs 78–80 and 80–84, respectively. For both the 14- and 90-day studies, an ophthalmologic examination was conducted prior to randomization and near the end of the study, using indirect ophthalmoscopy and slit–lamp biomicroscopy (as needed) after the administration of a mydriatic solution.
Hematology, biochemistry, and coagulation endpoints were measured at the termination of the study. A Siemens Advia 2120i hematology analyzer (Siemens Healthineers, Erlangen, Germany) was used to measure (or calculate) the parameters related to the complete blood count, leukocyte differential count, and reticulocyte count. The hematology parameters are listed and described in Table 2. The prothrombin time […] and activated partial thromboplastin time (APTT) were measured using an Instrumentation Laboratory (Bedford, MA, USA) ACL Elite Pro coagulation analyzer (laser–nephelometric centrifugal method).
At necropsy, the rats were visually examined for external abnormalities and organ weights (absolute and relative to the BW and brain weight), which were recorded (paired organs weighed together). The tissues were preserved in 10% neutral buffered formalin (NBF), except for the ocular tissues, testes, and epididymides, which were preserved in modified Davidson’s fixative and later transferred to 10% NBF. Bone marrow smears were prepared from the femurs, and the slides were air-dried, fixed in methanol, stained, and stored at room temperature for possible future evaluation. The preserved tissues were embedded in paraffin, sectioned, stained with hematoxylin and eosin, and examined by a board-certified veterinary pathologist.
Statistical analysis was performed using Provantis™ Version 10 or greater (Instem LSS, Limited; Stone, Staffordshire, UK). Differences among the treatment groups compared to the control were evaluated using one-way analysis of variance (ANOVA) if the underlying assumptions of a normal distribution (Shapiro–Wilk test) and the homogeneity of the variance (Levene’s test) were satisfied. […]

CC(=O)C(F)(F)C(F)(F)C(F)(F)F [MHFPK, Methyl heptafluoropropyl ketone]
Bodyweight (BW) and bodyweight gain (90-day, both sexes, all doses): No changes in BW or BW gain over the course of the study
Clinical observations (90-day, both sexes, all doses): None
Coagulation endpoints (90-day, both sexes, all doses): Males at ≥37.5 mg/kg-day, from minimal to mild dose-dependent prolongations in PT; no effects in females
Feed consumption (90-day, both sexes, all doses): No changes in males; some statistically significant changes in females, not considered as compound related
Functional observational battery (90-day, both sexes, all doses): No changes
Gross lesions (90-day, both sexes, all doses): None considered as MHFPK related
Hematology (90-day, both sexes, all doses): From minimal to mild dose-dependent increases in MPV in both sexes at ≥18.8 mg/kg-day
Histopathology (90-day, both sexes, all doses): None considered as MHFPK related
Locomotor activity (90-day, both sexes, all doses): No effects
Morbidity and mortality (90-day, both sexes, all doses): None
Ophthalmology (90-day, both sexes, all doses): No ocular lesions
Organ weight changes (90-day, both sexes, all doses): None considered as MHFPK related
LOEL, absolute kidney weight increase (female): NR
LOEL, absolute liver weight increase (female): NR
LOEL, relative kidney weight increase (female): NR
LOEL, relative liver weight increase (female): NR
NOEL, absolute kidney weight increase (female): NR
NOEL, absolute liver weight increase (female): NR
NOEL, relative kidney weight increase (female): NR
NOEL, relative liver weight increase (female): NR
% BW Gain (female, 18.8 mg/kg-day): 47.40%
% Diff, % BW Gain (female, 18.8 mg/kg-day): 25.52%
% Diff, Total BW change (female, 18.8 mg/kg-day): 27.05%
% Diff, Total Food Consumed (female, 18.8 mg/kg-day): 11.67%
A/G (female, 18.8 mg/kg-day): 1.12±0.13 ratio
ABEOS (female, 18.8 mg/kg-day): 0.108±0.037 K/µL
ABNEUT (female, 18.8 mg/kg-day): 1.004±0.296 K/µL
ABRETi (female, 18.8 mg/kg-day): 195.85±38.05 10^9/L
ALB (female, 18.8 mg/kg-day): 4.26 ± 0.27 g/dL
ALPi (female, 18.8 mg/kg-day): 69.1±55.5 U/L
APTT (female, 18.8 mg/kg-day): 16.80 s
BUN (female, 18.8 mg/kg-day): 15.5 ± 2.2 mg/dL
CHOL (female, 18.8 mg/kg-day): 100.6 ± 17.0 mg/dL
GLOB (female, 18.8 mg/kg-day): 3.82 ± 0.36 g/dL
GLUC (female, 18.8 mg/kg-day): 158.0 ± 18.9 mg/dL
HCT (female, 18.8 mg/kg-day): 46.27±2.37%
HGB (female, 18.8 mg/kg-day): 14.58 ± 0.67 g/dL
Kidney Weight (female, 18.8 mg/kg-day): 1.94 g
Kidney/Body Weight (female, 18.8 mg/kg-day): 0.56%
Kidney/Brain Weight (female, 18.8 mg/kg-day): 96.5%
Liver Weight (female, 18.8 mg/kg-day): 8.74 g
Liver/Body Weight (female, 18.8 mg/kg-day): 2.51%
Liver/Brain Weight (female, 18.8 mg/kg-day): 435%
MPV (female, 18.8 mg/kg-day): 8.22 ± 0.82 fL
PT (female, 18.8 mg/kg-day): 15.23 s
RBC (female, 18.8 mg/kg-day): 7.887±0.439 M/µL
Total BW change (female, 18.8 mg/kg-day): 115.68 g
Total Food Consumed (female, 18.8 mg/kg-day): 1629 g
% BW Gain (female, 37.5 mg/kg-day): 44.49%
% Diff, % BW Gain (female, 37.5 mg/kg-day): 17.83%
% Diff, Total BW change (female, 37.5 mg/kg-day): 18.53%
% Diff, Total Food Consumed (female, 37.5 mg/kg-day): 1.46%
A/G (female, 37.5 mg/kg-day): 1.05±0.08 ratio
ABEOS (female, 37.5 mg/kg-day): 0.102±0.040 K/µL
ABNEUT (female, 37.5 mg/kg-day): 1.068±0.314 K/µL
ABRETi (female, 37.5 mg/kg-day): 190.80±35.78 10^9/L
ALB (female, 37.5 mg/kg-day): 4.17 ± 0.35 g/dL
ALPi (female, 37.5 mg/kg-day): 56.9±24.3 U/L
APTT (female, 37.5 mg/kg-day): 18.10 s
BUN (female, 37.5 mg/kg-day): 14.7 ± 2.4 mg/dL
CHOL (female, 37.5 mg/kg-day): 106.5 ± 21.4 mg/dL
GLOB (female, 37.5 mg/kg-day): 3.99 ± 0.28 g/dL
GLUC (female, 37.5 mg/kg-day): 161.9 ± 28.0 mg/dL
HCT (female, 37.5 mg/kg-day): 46.13±1.42%
HGB (female, 37.5 mg/kg-day): 14.42 ± 0.61 g/dL
Kidney Weight (female, 37.5 mg/kg-day): 1.84 g
Kidney/Body Weight (female, 37.5 mg/kg-day): 0.55%
Kidney/Brain Weight (female, 37.5 mg/kg-day): 91.4%
Liver Weight (female, 37.5 mg/kg-day): 8.76 g
Liver/Body Weight (female, 37.5 mg/kg-day): 2.58%
Liver/Brain Weight (female, 37.5 mg/kg-day): 433%
MPV (female, 37.5 mg/kg-day): 8.56 ± 0.67 fL
PT (female, 37.5 mg/kg-day): 14.98 s
RBC (female, 37.5 mg/kg-day): 7.864±0.307 M/µL
Total BW change (female, 37.5 mg/kg-day): 107.92 g
Total Food Consumed (female, 37.5 mg/kg-day): 1480 g
% BW Gain (female, 75 mg/kg-day): 39.38%
